According to patent US8813566B2, “Instrumentation and analytical techniques suitable for broadband acoustic resonance dissolution spectroscopy” (University College Cork—National University of Ireland, priority 2008, dated 2014):

Experiment: Broadband acoustic resonance dissolution spectroscopy (BARDS) dissolution profile in distilled water
Type: physicochemical
Conditions: 0.4M in 100 ml of double distilled water

time required for complete dissolution: 75 s
SMILES: O=S(=O)([O-])[O-].[Cu+2] [anhydrous form, Anhydrous copper sulphate]
